This note sets out measurements from the NIST ThermoML archive (doi:10.1021/acs.jced.6b00201).

Numbers after ± are expanded uncertainties.

A short description of data set [1]: Molar enthalpy of transition or fusion. The conditions noted are these: DSC.
The conditions of data set [2]: for Triple point temperature / Glass transition temperature: DSC; for Normal melting temperature: visual observation.

For the molecule `CCCCn1cc[n+](C)c1.F[P-](F)(F)(F)(F)F` [1-butyl-3-methylimidazolium hexafluorophosphate], the “Molar enthalpy of transition or fusion” value in data set [1] (Crystal 1) was 2.73 ± 0.0837 kcal/mol. Also, the Triple point temperature in data set [2] (Crystal 1) came to 286.46 ± 1.2 K. For the same molecule, the Glass transition temperature in data set [2] was -74.28 ± 1.2 °C. Take `CCCCn1cc[n+](C)c1.F[B-](F)(F)F` [1-butyl-3-methylimidazolium tetrafluoroborate]: the Glass transition temperature in data set [2] was -83.90 ± 8 °C.

On to `CCCCn1cc[n+](C)c1.O=S(=O)([O-])C(F)(F)F` [1-butyl-3-methylimidazolium trifluoromethanesulfonate], for which the “Molar enthalpy of transition or fusion” value in data set [1] (Crystal) was determined as 4.82 ± 0.141 kcal/mol. The Triple point temperature in data set [2] (Crystal) is reported as 291.46 ± 1.2 K. Consider `CCCCCCCCn1cc[n+](C)c1.O=S(=O)([O-])C(F)(F)F` [1-octyl-3-methylimidazolium trifluoromethanesulfonate], for which the “Molar enthalpy of transition or fusion” value in data set [1] (Crystal 1) amounted to 5.76 ± 0.165 kcal/mol. Further, the Triple point temperature in data set [2] (Crystal) came out at 283.51 ± 1.2 K.

As for `NNC(=O)c1ccncc1` [isonicotinic acid hydrazide], the Normal melting temperature in data set [2] (Crystal) stood at 172.69 ± 2 °C. Consider `NC(=O)c1cnccn1` [pyrazinecarboxamide], for which the Normal melting temperature in data set [2] (Crystal) was 188.27 ± 0.16 °C.
